Results published in patent US20110312914A1, “CARBON MONOXIDE REMOVAL AGENT” (priority 2009, published 2011).

Legend:
[1] = diafiltration test, kidney model using an ultrafiltration membrane (molecular weight cutoff 30,000); assay type: in vitro ADME
Procedure: The mechanism by which the carbon monoxide removal agent according to the present invention is excreted from blood into urine via kidneys was examined by way of a kidney model using an ultrafiltration membrane. Specifically, an experiment was performed as follows.
FeTPPS, RSA, and Py3CD (procured from the same firms as in EXAMPLE 3) were respectively dissolved in a PBS buffer (pH 7.4) to prepare 0.22 μM solutions. Also, ultraviolet-visible absorption spectra were measured using the same apparatuses as in EXAMPLE 1. As the ultrafiltration membrane, a stirred cell (Model 8050 made by Millipore Corp.) with an ultrafiltration membrane with a molecular weight cutoff of 30,000 attached was used.
Equivalent amounts of the FeTPPS solution and the RSA solution were mixed to prepare an equimolar mixture, and the equimolar mixture solution was placed in the stirred cell that was set above a recovery beaker. While pressurizing with nitrogen gas, a filtrate was recovered at every fixed amount and subject to ultraviolet-visible absorption spectral analysis.
At a point at which 20 mL of the filtrate was recovered, the Py3CD solution was added so that the molar amount of Py3CD was equal to the molar amount of each of FeTPPS and RSA in the residual solution. […]

[2] = effect of the cyclodextrin dimer on the urinary excretion of porphyrins, absorbance at 420 nm of urine; assay type: in vivo; details: rat, medical agent containing just the porphyrin (0.5 mM) administered, before Py3CD
Procedure: The influence that the cyclodextrin dimer has on the excretion of the carbon monoxide removal agent in urine was examined. Specifically, each of the porphyrins was administered solitarily into a rat and absorbance at 420 nm, at which each administered porphyrin has a strong absorption band, was measured to examine the amount of the porphyrin excreted into urine. Also, after administration of each porphyrin, the cyclodextrin dimer was administered and the influence thereof was examined. Specifically, an experiment was performed as follows.
Commercially available FeTPPS (made by Frontier Scientific Inc.) and TPPS (made by Tokyo Chemical Industry Co., Ltd.) with the central metal removed from FeTPPS were respectively dissolved separately to a concentration of 0.5 mM in a PBS buffer (pH 7.4) and thereby prepared as medical agents. Also, a Py3CD solution was prepared by dissolving Py3CD to a concentration of 0.6 mM in the PBS buffer (pH 7.4). Further, ultraviolet-visible absorption spectra were measured using the same apparatuses as in EXAMPLE 1.
The medical agent containing FeTPPS was administered continuously to a rat by the syringe pump (1 mL/min). By the same method as in EXAMPLE 1, urine was sampled every 30 minutes from the start of administration and the change with time of the absorbance at 420 nm was examined. […]

[3] = biological target: T1, Serum albumin (RSA) (Rattus norvegicus, UniProt P02770); experiment: ultraviolet-visible titration of FeTPPS solution with RSA solution; assay type: binding; details: 5×10^−6 M FeTPPS, PBS buffer pH 7.4
T1 construct: purchased SIGMA; Co., Ltd
Description: Serum albumin (RSA) is a protein component of the highest content in blood and is known to have a property of taking in various hydrophobic molecules. FeTPPS is not an exception and is known to bind strongly to serum albumin (see, for example, V. E. Yushmanov et al, Mag. Res. Imaging, 14, 255-261 (1996), T. T. Tominaga et al, J. Inorg. Biochem., 65, 235-244 (1997), etc.). The effect of inducing urinary excretion of FeTPPS by Py3CD was thus compared with that by RSA. Specifically, an experiment was performed as follows.
FeTPPS was dissolved in a PBS buffer (pH 7.4) to prepare a 5 μM solution, and Py3CD and RSA (made by SIGMA. Co., Ltd.) were separately dissolved in the PBS buffer (pH 7.4) to prepare respective stock solutions. Ultraviolet-visible absorption spectra were measured with the same apparatuses as those used in EXAMPLE 1.
The FeTPPS solution was placed in a cuvette, ultraviolet-visible absorption spectra were measured while adding fixed amounts of the RSA solution to the cuvette, and at a point at which changes reached saturation, ultraviolet-visible absorption spectra were measured while adding the Py3CD solution in place of the RSA solution. FIG. 4(a) is a diagram showing the changes in the ultraviolet-visible absorption spectra and FIG. 4(b) is a titration plot.

T1 sequence (P02770 25-608): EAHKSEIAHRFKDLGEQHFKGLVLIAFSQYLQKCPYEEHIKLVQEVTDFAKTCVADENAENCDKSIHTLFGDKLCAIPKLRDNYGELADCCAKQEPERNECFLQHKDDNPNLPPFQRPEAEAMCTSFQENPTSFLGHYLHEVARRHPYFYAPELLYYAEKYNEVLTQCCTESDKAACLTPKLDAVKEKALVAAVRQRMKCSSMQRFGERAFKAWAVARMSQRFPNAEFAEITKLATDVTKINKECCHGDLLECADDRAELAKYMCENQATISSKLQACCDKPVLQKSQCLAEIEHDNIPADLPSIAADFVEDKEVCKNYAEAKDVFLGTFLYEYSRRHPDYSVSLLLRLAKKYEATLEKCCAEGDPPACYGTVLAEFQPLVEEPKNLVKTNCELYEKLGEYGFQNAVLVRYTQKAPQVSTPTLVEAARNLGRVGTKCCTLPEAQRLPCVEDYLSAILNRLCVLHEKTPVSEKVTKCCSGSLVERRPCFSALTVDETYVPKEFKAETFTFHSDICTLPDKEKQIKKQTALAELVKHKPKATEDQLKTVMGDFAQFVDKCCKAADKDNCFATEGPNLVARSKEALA

Q: For “5,10,15,20-tetrakis(4-sulfonatophenyl)porphyrin (II) iron complex [FeTPPS]”, which “passage through the ultrafiltration membrane” value ([1]; FeTPPS held by RSA (equimolar mixture), before Py3CD addition) is on record?
A: The value was “cannot pass through the ultrafiltration membrane”.

Q: And the “passage through the ultrafiltration membrane” value ([1]; FeTPPS released from RSA by addition of Py3CD and included in Py3CD)?
A: The value was “capable of passing through the ultrafiltration membrane”.

Q: And the “excretion of porphyrin in urine” value [2]?
A: Its value is “not excreted at all in urine”.

Q: And the “RSA amount at which the spectral changes reach saturation” value [3]?
A: Its value is “approximately ⅓”.

Q: What about the “number of FeTPPS molecules that can bind to a single RSA molecule” value [3] of the same compound?
A: Its value is “approximately three”.

Q: For `O=S(=O)(O)c1ccc(-c2c3nc(c(-c4ccc(S(=O)(=O)O)cc4)c4ccc([nH]4)c(-c4ccc(S(=O)(=O)O)cc4)c4nc(c(-c5ccc(S(=O)(=O)O)cc5)c5ccc2[nH]5)C=C4)C=C3)cc1` [TPPS, reference compound], which “excretion of porphyrin in urine” value [2] is on record?
A: Its value is “not excreted at all in urine”.
